Measured values as given in patent US11230526B1, “Cylcoalkenyl derivatives useful as agonists of the GPR120 and/or GPR40 receptors” (Janssen Pharmaceutica NV, priority 2018, dated 2022).

Experiments:
[1] = target: T1, human GPR40 (Homo sapiens, UniProt O14842); assay: GPR40 calcium flux assay, human GPR40; format: cell-based; settings: HEK293 cells stably expressing GPR40; table does not say human or rat
T1 construct: expressed in transfected cells
Protocol: Compounds were tested in a calcium flux assay using transfected HEK293 cells stably expressing either human GPR40 or rat GPR40. Human GPR40 expressing cells were cultured in DMEM−High Glucose media supplemented with 10% fetal bovine serum, 1×L-Glutamine, 1×Penicillin/Streptomycin and 500 μg/mL G418. Rat GPR40 expressing cells were cultured in DMEM−High Glucose media supplemented with 10% fetal bovine serum and 1 μg/mL puromycin. Cells were plated into poly-D-lysine coated 384-well plates and cultured overnight in a 37° C. humidified tissue culture incubator under 5% CO2/[…] atmosphere.
On the day of the experiment, the culture media was replaced with assay buffer (HBSS, 20 mM HEPES, 0.1% BSA) and the cells incubated at 37° C. for 1 h. Calcium-sensitive fluorescent dye (Fluo 8 No-Wash Calcium Dye, ABD Bioquest) was then added and the cells incubated for another 30 min at 37° C. followed by 15 min at room temperature while protected from the light. The cell plate and a plate of diluted compounds of Formula (I) were loaded into a fluorescent plate reader that added compounds onto the cells while measuring the fluorescence intensity of each well. The plate reader recorded fluorescence intensity at 1 second intervals for 8 min and provided the data for analysis in an Excel format. EC50 values were calculated using Prism (GraphPad) software.

[2] = target: T2, Human GPR120 short form (Homo sapiens, UniProt Q5NUL3); assay: Human GPR120 calcium flux assay, Procedure Calcium B (4200 cells/well); format: cell-based
T2 construct: expressed in transfected cells
T2 sequence (Q5NUL3 1-361): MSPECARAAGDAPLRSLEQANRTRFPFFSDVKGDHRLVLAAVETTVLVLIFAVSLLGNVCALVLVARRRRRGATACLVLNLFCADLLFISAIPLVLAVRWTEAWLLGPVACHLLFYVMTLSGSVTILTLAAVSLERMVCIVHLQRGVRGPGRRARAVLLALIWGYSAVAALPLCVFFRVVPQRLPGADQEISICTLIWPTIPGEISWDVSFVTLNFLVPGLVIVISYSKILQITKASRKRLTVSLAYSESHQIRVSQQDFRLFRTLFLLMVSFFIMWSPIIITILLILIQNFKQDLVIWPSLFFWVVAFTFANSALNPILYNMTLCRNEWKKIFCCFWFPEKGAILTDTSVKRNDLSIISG
Protocol: Human GPR120 in Calcium Flux Assay
These cells are first loaded with the Ca^+2 sensitive dye, Fluo-4 NW. Upon stimulation, intracellular released Ca^+2 can bind to the dye and alter its fluorescence intensity. This increase in fluorescence signal, and thus the flux in intracellular [Ca^2+], is detected and quantitated by fluorescence imaging using a FLIPR reader. The effect of the agonist is measured as a function of concentration and used to calculate an EC50 based upon a response curve.
In this procedure 4200 cells/well were employed.
A Human GPR120 clone (Genbank accession number NM_001195755.1) was placed into the pcDNA3.1 mammalian expression vector carrying the neomycin resistance gene. A stable mammalian cell was generated by placing the above clone into a HEK293 background. […] Cells were split 2 times a week to keep the cells in the log-phase growth. […]
The assay was performed on a FLIPR plate reader using the following parameters. Baseline was read for 10 seconds at 1 sec intervals. The program was set to transfer 10 μL of ligand from compound plate to cell plate after baseline reading. Aspiration was executed at: 10 μL/sec speed, 4.6 μL height, Dispensing was executed at: 30 μL/sec speed, 45 μL height. After compound addition, each well was read for 300 sec, with measurements collected at 1 sec intervals.
The kinetic data from the FLIPR was based upon a 5 minute window for data collection. The fluorescence of each sample well was used for individual calculations of a normalized RFU value, which was defined as maximum response minus the minimum response. The normalized fluorescence reading (RFU) was calculated as follows: RFU=Fmax−Fmin
The Fitting Equation was: Y=Bottom+(Top-Bottom)/(1+10^((Log EC50−X)*HillSlope)), where X is the log of the concentration and Y is the response.

T1 sequence (O14842 whole entry): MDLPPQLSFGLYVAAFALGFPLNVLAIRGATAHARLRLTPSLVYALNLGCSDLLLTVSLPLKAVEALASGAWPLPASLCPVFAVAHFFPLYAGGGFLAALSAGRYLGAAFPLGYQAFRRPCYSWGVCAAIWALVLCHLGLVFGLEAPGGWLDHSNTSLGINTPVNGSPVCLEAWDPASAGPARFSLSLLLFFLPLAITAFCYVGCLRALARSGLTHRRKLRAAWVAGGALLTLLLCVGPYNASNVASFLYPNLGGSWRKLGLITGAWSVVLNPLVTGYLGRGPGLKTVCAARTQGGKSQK

Row | SMILES | EC50 [1] | EC50 [2]
1 | O=C(O)CCc1ccc(OCC2=C(C3CC4CCC3C4)CCC2)cc1C(F)(F)F (stereo not shown) [Compound 390, 3-[4-[(2-norbornan-2-ylcyclopenten-1-yl)methoxy]-2-(trifluoromethyl)phenyl]Propanoic Acid] | 23 nM | 1190 nM
2 | Cc1c(CCC(=O)O)cc(F)c(OCC2=C(c3ccc(F)cc3)CCC2)c1C [Compound 254, 3-[5-fluoro-4-[[2-(4-fluorophenyl)cyclopenten-1-yl]methoxy]-2,3-dimethyl-phenyl]Propanoic Acid] | > 5000 nM | 594 nM
3 | O=C(O)CCc1ccc(OCC2=C(c3ccc(Cl)cc3F)CCC2)cc1C(F)(F)F [Compound 285, 3-[4-[[2-(4-chloro-2-fluoro-phenyl)cyclopenten-1-yl]methoxy]-2-(trifluoromethyl)phenyl]Propanoic Acid] | 108 nM | 328 nM
4 | O=C(O)CCc1ccc(OCC2=C(C3CCCC3)CCCC2)cc1C(F)(F)F [Compound 603, 3-[4-[(2-cyclopentylcyclohexen-1-yl)methoxy]-2-(trifluoromethyl)phenyl]Propanoic Acid] | 185 nM | 1970 nM
5 | CC1CCC(COc2ccc(CCC(=O)O)c(Cl)c2)=C1c1ccccc1 (stereo not shown) [Compound 320, 3-[2-chloro-4-[(3-methyl-2-phenyl-cyclopenten-1-yl)methoxy]phenyl]Propanoic Acid] | 543 nM | 998 nM
6 | Cc1ccc(CC2=C(COc3ccc(CCC(=O)O)c(C(F)(F)F)c3)CCC2)cc1 [Compound 345, 3-[4-[[2-(p-tolylmethyl)cyclopenten-1-yl]methoxy]-2-(trifluoromethyl)phenyl]Propanoic Acid] | 67 nM | 3020 nM
7 | Cc1ccc(C2=C(COc3ccc(CCC(=O)O)c(Cl)c3)CCC2)c(C)c1 [Compound 246, 3-[2-chloro-4-[[2-(2,4-dimethylphenyl)cyclopenten-1-yl]methoxy]phenyl]Propanoic Acid] | 358 nM | 3130 nM
8 | CS(=O)(=O)CCCCc1cc(CCC(=O)O)ccc1OCC1=C(c2ccc(Cl)cc2)CCC1 [Compound 181, 3-[4-[[2-(4-chlorophenyl)cyclopenten-1-yl]methoxy]-3-(4-methylsulfonylbutyl)phenyl]Propanoic Acid] |  | > 5000 nM
9 | Cc1cc(OCC2=C(c3ccccc3)CCC2C)c(F)cc1CCC(=O)O (stereo not shown) [Compound 338, 3-[5-fluoro-2-methyl-4-[(5-methyl-2-phenyl-cyclopenten-1-yl)methoxy]phenyl]Propanoic Acid] | 2860 nM | 725 nM
10 | CCc1cc(CCC(=O)O)c(C(F)(F)F)cc1OCC1=C(c2ccc(Cl)cc2)CCC1 [Compound 142, 3-[4-[[2-(4-chlorophenyl)cyclopenten-1-yl]methoxy]-5-ethyl-2-(trifluoromethyl)phenyl]Propanoic Acid] | > 5000 nM | 
11 | O=C(O)CCc1ccc(OCC2=C(C3CCCC3)CCCCC2)cc1 [Compound 614, 3-[4-[(2-cyclopentylcyclohepten-1-yl)methoxy]phenyl]Propanoic Acid] | 560 nM | 376 nM
12 | Cc1cc(OCC2=C(c3cc(Cl)ccc3F)CCC2)c(F)cc1CCC(=O)O [Compound 339, 3-[4-[[2-(5-chloro-2-fluoro-phenyl)cyclopenten-1-yl]methoxy]-5-fluoro-2-methyl-phenyl]Propanoic Acid] | 356 nM | 803 nM
13 | O=C(O)CCc1ccc(OCC2=C(C3=CCCCC3)CCC2)cc1C(F)(F)F [Compound 354, 3-[4-[[2-(cyclohexen-1-yl)cyclopenten-1-yl]methoxy]-2-(trifluoromethyl)phenyl]Propanoic Acid] | 825 nM | 1770 nM
14 | O=C(O)CCc1ccc(OCC2=C(c3ccc(Cl)c(F)c3)CCC2)cc1C(F)(F)F [Compound 284, 3-[4-[[2-(4-chloro-3-fluoro-phenyl)cyclopenten-1-yl]methoxy]-2-(trifluoromethyl)phenyl]Propanoic Acid] | 101 nM | 442 nM
15 | Cc1c(CCC(=O)O)cc(I)c(OCC2=C(c3ccc(I)cc3)CCCC2)c1C [Compound 524, 3-[5-iodo-4-[[2-(4-iodophenyl)cyclohexen-1-yl]methoxy]-2,3-dimethyl-phenyl]Propanoic Acid] |  | 1570 nM
16 | CC(Cc1cc(F)c(OCC2=C(c3ccc(Cl)cc3)CCC2)c(F)c1)C(=O)O (stereo not shown) [Compound 144, 3-[4-[[2-(4-chlorophenyl)cyclopenten-1-yl]methoxy]-3,5-difluoro-phenyl]-2-methyl-Propanoic Acid] | > 5000 nM | 
17 | O=C(O)CCc1ccc(OCC2=C(CC3CCCC3)CCC2)cc1C(F)(F)F [Compound 420, 3-[4-[[2-(cyclopentylmethyl)cyclopenten-1-yl]methoxy]-2-(trifluoromethyl)phenyl]Propanoic Acid] |  | 1190 nM
18 | CC(C)(C)c1cc(OCC2=C(c3ccc(Cl)cc3)CCC2)ccc1CCC(=O)O [Compound 168, 3-[2-tert-butyl-4-[[2-(4-chlorophenyl)cyclopenten-1-yl]methoxy]phenyl]Propanoic Acid] |  | > 5000 nM
19 | O=C(O)CCc1cc(F)c(OCC2=C(c3cncs3)CCC(F)(F)C2)c(F)c1 [Compound 549, 3-[4-[(5,5-difluoro-2-thiazol-5-yl-cyclohexen-1-yl)methoxy]-3,5-difluoro-phenyl]Propanoic Acid] |  | 1280 nM
20 | CS(=O)(=O)CCCCc1cc(CCC(=O)O)ccc1OCC1=C(c2ccc(Cl)cc2)CCC(F)(F)C1 [Compound 551, 3-[4-[[2-(4-chlorophenyl)-5,5-difluoro-cyclohexen-1-yl]methoxy]-3-(4-methylsulfonylbutyl)phenyl]Propanoic Acid] |  | > 5000 nM
21 | Cc1cc(OCC2=C(c3cccc(F)c3)CCC2)c(F)cc1CCC(=O)O [Compound 305, 3-[5-fluoro-4-[[2-(3-fluorophenyl)cyclopenten-1-yl]methoxy]-2-methyl-phenyl]Propanoic Acid] |  | 378 nM
22 | O=C(O)CCc1cc(F)c(OCC2=C(c3ccc(Cl)c(F)c3)CCC(F)(F)C2)c(F)c1 [Compound 528, 3-[4-[[2-(4-chloro-3-fluoro-phenyl)-5,5-difluoro-cyclohexen-1-yl]methoxy]-3,5-difluoro-phenyl]Propanoic Acid] |  | 1070 nM
23 | Cc1cccc(C2=C(COc3cc(C)c(CCC(=O)O)cc3F)CCC2)c1 [Compound 318, 3-[5-fluoro-2-methyl-4-[[2-(m-tolyl)cyclopenten-1-yl]methoxy]phenyl]Propanoic Acid] |  | 957 nM
24 | Cc1c(CCC(=O)O)ccc(OCC2=C(CC3CCCC3)CCC2)c1C [Compound 427, 3-[4-[[2-(cyclopentylmethyl)cyclopenten-1-yl]methoxy]-2,3-dimethyl-phenyl]Propanoic Acid] |  | 231 nM
25 | N#Cc1cc(OCC2=C(C3CCCC3)CCC2)ccc1CCC(=O)O [Compound 414, 3-[2-cyano-4-[(2-cyclopentylcyclopenten-1-yl)methoxy]phenyl]Propanoic Acid] |  | 2580 nM
26 | O=C(O)CCc1ccc(OCC2=C(c3ccc(Cl)cc3)CCC2)cc1C(F)(F)C(F)(F)F [Compound 89, 3-[4-[[2-(4-chlorophenyl)cyclopenten-1-yl]methoxy]-2-(1,1,2,2,2-pentafluoroethyl)phenyl]Propanoic Acid] |  | 1410 nM
27 | CSCCCCc1cc(CCC(=O)O)ccc1OCC1=C(c2ccc(Cl)cc2)CCC(F)(F)C1 [Compound 565, 3-[4-[[2-(4-chlorophenyl)-5,5-difluoro-cyclohexen-1-yl]methoxy]-3-(4-methylsulfanylbutyl)phenyl]Propanoic Acid] |  | 3890 nM
28 | O=C(O)CCc1ccc(OCC2=C(c3ccc(Cl)cc3)CC(F)C2)cc1Cl (stereo not shown) [Compound 252, 3-[2-chloro-4-[[2-(4-chlorophenyl)-4-fluoro-cyclopenten-1-yl]methoxy]phenyl]Propanoic Acid] |  | 265 nM
